Measurements taken from patent publication US20120142646A1, “Novel Compounds 621” (priority 2006, published 2012).
Where a name gives a salt, the structure may show the parent alone.

Target: T1, Adrenergic β2 (Homo sapiens, UniProt P07550)
T1 construct: Adherent H292 cells were removed from tissue culture flasks; endogenous in cells; host or cells: H292 cells
Assay: Adrenergic β2 mediated cAMP production in H292 cells (AlphaScreen cAMP detection)
Assay type: cell-based
Set-up: key to β2 Int Act: fraction of formoterol maximum activity (formoterol = 1)
Details: Intrinsic Activity as a fraction relative to the maximum activity determined for formoterol
Outline: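 H292 cells pre-treated 10 min with rolipram (300 μM final), then given agonist for 60 min at room temperature in HBSS/10 mM HEPES pH 7.4, 1.6% DMSO final. Lysate cAMP measured by AlphaScreen against a cAMP standard curve. Four-parameter fit gives pEC50; intrinsic activity relative to formoterol maximum.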

T1 sequence (P07550 whole entry): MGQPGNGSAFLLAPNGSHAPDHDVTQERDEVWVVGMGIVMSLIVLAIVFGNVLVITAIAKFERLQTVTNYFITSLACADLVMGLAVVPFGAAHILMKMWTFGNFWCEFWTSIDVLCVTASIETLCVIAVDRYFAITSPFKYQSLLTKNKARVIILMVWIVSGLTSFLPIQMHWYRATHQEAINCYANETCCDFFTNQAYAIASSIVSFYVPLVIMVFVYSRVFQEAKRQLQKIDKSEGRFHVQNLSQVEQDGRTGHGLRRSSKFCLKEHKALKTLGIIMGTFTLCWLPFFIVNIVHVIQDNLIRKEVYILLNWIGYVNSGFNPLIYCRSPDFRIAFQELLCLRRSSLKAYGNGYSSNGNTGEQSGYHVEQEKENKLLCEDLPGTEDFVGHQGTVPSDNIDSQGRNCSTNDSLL

| Compound | β2 Int Act |
| --- | --- |
| O=C1COc2c(CCNCCN(C(=O)CCNCCc3cccc(F)c3)C3CCCCCC3)ccc(O)c2N1 [Example 69, N-Cycloheptyl-3-(3-fluorophenethylamino)-N-(2-(2-(5-hydroxy-3-oxo-3,4-dihydro-2H-benzo[b][1,4]oxazin-8-yl)ethylamino)ethyl)propanamide bis(trifluoroacetate)] | 0.88 |
| O=C1COc2c(CCNCCN(C(=O)CCOCCc3ccccc3)C3CCCCC3)ccc(O)c2N1 [Example 70, N-Cyclohexyl-N-(2-(2-(5-hydroxy-3-oxo-3,4-dihydro-2H-benzo[b][1,4]oxazin-8-yl)ethylamino)ethyl)-3-phenethoxypropanamide trifluoroacetate] | 0.97 |
| Cl.O=C(CCOCCc1ccc(F)cc1)N(CCNCCc1ccc(O)c2[nH]c(=O)ccc12)C1CCCCC1 [Example 71, N-Cyclohexyl-3-(4-fluorophenethoxy)-N-(2-(2-(8-hydroxy-2-oxo-1,2-dihydroquinolin-5-yl)ethylamino)ethyl)propanamide hydrochloride] | 0.85 |
| Cl.O=C(CCOCCc1cccc(F)c1)N(CCNCCc1ccc(O)c2[nH]c(=O)ccc12)C1CCCCC1 [Example 72, N-Cyclohexyl-3-(3-fluorophenethoxy)-N-(2-(2-(8-hydroxy-2-oxo-1,2-dihydroquinolin-5-yl)ethylamino)ethyl)propanamide hydrochloride] | 0.92 |
| Cl.O=C(CCOCCc1ccccc1F)N(CCNCCc1ccc(O)c2[nH]c(=O)ccc12)C1CCCCC1 [Example 73, N-Cyclohexyl-3-(2-fluorophenethoxy)-N-(2-(2-(8-hydroxy-2-oxo-1,2-dihydroquinolin-5-yl)ethylamino)ethyl)propanamide hydrochloride] | 0.94 |
| O=C1COc2c(CCNCCN(C(=O)CCOCCc3cccc(F)c3)C3CCCCC3)ccc(O)c2N1 [Example 74, N-Cyclohexyl-3-(3-fluorophenethoxy)-N-(2-(2-(5-hydroxy-3-oxo-3,4-dihydro-2H-benzo[b][1,4]oxazin-8-yl)ethylamino)ethyl)propanamide trifluoroacetate] | 0.97 |
| O=C1COc2c(CCNCCN(C(=O)CCOCCc3ccc(F)cc3)C3CCCCC3)ccc(O)c2N1 [Example 75, N-Cyclohexyl-3-(4-fluorophenethoxy)-N-(2-(2-(5-hydroxy-3-oxo-3,4-dihydro-2H-benzo[b][1,4]oxazin-8-yl)ethylamino)ethyl)propanamide trifluoroacetate] | 0.96 |
| O=C1COc2c(CCNCCN(C(=O)CCOCCc3ccccc3F)C3CCCCC3)ccc(O)c2N1 [Example 76, N-Cyclohexyl-3-(2-fluorophenethoxy)-N-(2-(2-(5-hydroxy-3-oxo-3,4-dihydro-2H-benzo[b][1,4]oxazin-8-yl)ethylamino)ethyl)propanamide trifluoroacetate] | 1.1 |
| O=C1COc2c(CCNCCN(C(=O)CCOCCc3cccc(Cl)c3)C3CCCCC3)ccc(O)c2N1 [Example 77, 3-(3-Chlorophenethoxy)-N-cyclohexyl-N-(2-(2-(5-hydroxy-3-oxo-3,4-dihydro-2H-benzo[b][1,4]oxazin-8-yl)ethylamino)ethyl)propanamide trifluoroacetate] | 0.97 |
| CC[C@@H](C)N(CCNCCc1ccc(O)c2[nH]c(=O)ccc12)C(=O)CCOCCc1ccccc1.Cl [Example 79, (R)—N-sec-Butyl-N-(2-(2-(8-hydroxy-2-oxo-1,2-dihydroquinolin-5-yl)ethylamino)ethyl)-3-phenethoxypropanamide hydrochloride] | 0.92 |
